Calls of active or inactive are those of the source.
Experiments:
[1] = test system: Radical scavenging activity; assay: Antioxidant activity assessed as DPPH radical scavenging activity at 200 ug after 30 mins by UV-visible spectrophotometry; assay type: functional
MCF7 = assay: Cytotoxicity against human MCF7 cells at 25 to 150 uM after 72 hrs by MTT assay; assay type: functional, cell-based
[2] = Antioxidant activity assessed as ferric ion reducing activity at 200 ug after 20 mins by UV-visible spectrophotometry; assay type: functional

Measured: Activity

CC1(C)C=Cc2cc(C3CC(=O)c4ccc(O)cc4O3)ccc2O1 (centres undefined)
active: [1] | MCF7 | [2]

COc1ccc(C2CC(=O)c3ccc(O)cc3O2)cc1 (centres undefined)
active: [1] | MCF7 | [2]

CC(C)=CCOc1ccc(/C=C/C(=O)c2ccc(O)cc2O)cc1
active: [1] | MCF7 | [2]

CC1(C)CCc2cc(C3CC(=O)c4ccc(O)cc4O3)ccc2O1 (centres undefined)
active: [1] | MCF7 | [2]

CC1(C)CCc2cc(/C=C/C(=O)c3ccc(O)cc3O)ccc2O1
active: [1] | MCF7 | [2]

CC(C)=CCc1cc(/C=C/C(=O)c2ccc(O)cc2O)ccc1O
active: [1] | MCF7 | [2]

O=C1C[C@@H](c2ccc(O)cc2)Oc2cc(O)ccc21
active: [1] | MCF7 | [2]

COc1ccc(C2CC(=O)c3ccc(O)cc3O2)cc1CC=C(C)C (centres undefined)
active: [1] | MCF7 | [2]

CC1(C)C=Cc2cc(/C=C/C(=O)c3ccc(O)cc3O)ccc2O1
active: [1] | MCF7 | [2]

COc1ccc(/C=C/C(=O)c2ccc(O)cc2O)cc1
active: [1] | MCF7 | [2]

COc1ccc(/C=C/C(=O)c2ccc(O)cc2O)cc1CC=C(C)C
active: [1] | MCF7 | [2]

CC(C)=CCc1cc(C2CC(=O)c3ccc(O)cc3O2)ccc1O (centres undefined)
active: [1] | MCF7 | [2]

O=C(/C=C/c1ccc(O)cc1)c1ccc(O)cc1O
active: [1] | MCF7 | [2]

Reference: ChEMBL document CHEMBL1158338, “Synthesis of (+/-)Abyssinone I and related compounds: Their anti-oxidant and cytotoxic activities” (Eur J Med Chem, 2009)
